In patent US20240287046A1, “COMPOUNDS AND RADIOLIGANDS FOR TARGETING NEUROTENSIN RECEPTOR AND USES THEREOF” (Full-Life Technologies HK Limited, priority 2022, published 2024):
Each block holds one compound with its values, some of them ahead of it.

What was measured:
[1] = molecular target: human NTSR-1 (Homo sapiens (Human), UniProt P30989); assay: radioligand competitive binding assay using ^177Lu labeled C-1 as reference radioligand; conditions: for Relative Binding Affinity: Mean IC50 of C-1/Mean IC50 of the test compound
Sequence of human NTSR-1 (P30989 whole entry): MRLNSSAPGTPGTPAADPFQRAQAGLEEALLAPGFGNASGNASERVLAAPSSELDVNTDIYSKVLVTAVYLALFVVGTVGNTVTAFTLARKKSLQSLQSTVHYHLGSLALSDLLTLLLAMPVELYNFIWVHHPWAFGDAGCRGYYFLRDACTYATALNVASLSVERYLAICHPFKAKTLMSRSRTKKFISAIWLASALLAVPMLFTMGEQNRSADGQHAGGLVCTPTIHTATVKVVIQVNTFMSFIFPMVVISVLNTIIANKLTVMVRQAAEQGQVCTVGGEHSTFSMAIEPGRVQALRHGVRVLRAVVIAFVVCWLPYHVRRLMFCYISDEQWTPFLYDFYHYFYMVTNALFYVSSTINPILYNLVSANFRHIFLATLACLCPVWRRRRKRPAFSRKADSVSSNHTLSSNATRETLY
Procedure: The binding affinities of test compounds were determined by a radioligand competitive binding assay using ^177Lu labeled C-1 as the reference radioligand.
Briefly, 100 μL HT-29 cells expressing human NTSR-1 at a density of 1˜2×10^6 cells/mL were mixed with binding buffer (RPMI-1640 medium supplemented with 0.25% bovine serum albumin) in each well of the 96-well filter plate (Millipore). Then the cells in each well were incubated with ^177Lu—C-1 (0.55 μCi/well) and the test compound under 37° C. for 1 hr (n=3). After incubation, unbound ^177Lu—C-1 and the test compound in each well was removed by filtration using a Multiscreen vacuum manifold (Millipore) and the cells were further rinsed with the binding buffer for 5 times. The cells from each well were then collected and radioactivity of the cells in each well was individually measured by y counter (2480 WIZARD2, PerkinElmer). The best-fit IC50 value of test compounds (inhibitory concentration when 50% of the bound ^177Lu—C-1 on cells were displaced) were calculated by fitting the data with nonlinear regression using GraphPad Prism 8.0.1.

[2] = system: HT-29 tumor-bearing mice; assay: Biodistribution of radionuclide labeled complexes in HT-29 tumor-bearing mice; format: in vivo, BALB/c nude mice
Procedure: (§1) The BALB/c nude mice (Charles River, Beijing) were utilized to establish the xenografted model for biodistribution study. All animal care and experimental procedure were performed by following the animal protocols approved by the ethics committee of China Institute of Radiation Protection.
(§2) Briefly, each mouse was inoculated with approximately 4×10^6 ASPC-1 cells (human pancreatic cancer cell line) or HT-29 cells (human colorectal adenocarcinoma cell line) expressing human NTSR-1 by subcutaneous injection at rear flank. After inoculation, the xenografted tumors were allowed to grow for ˜2-4 weeks till the tumor weight reached to about 0.05 to 0.50 g (0.20 g in average).
(§3) Biodistribution studies were performed by administrating the radionuclide labeled test compound at a dose of ˜30-50 μCi (100 μL in 0.9% NaCl, ˜1.11-1.85 MBq, with specific activity 30-250 μCi/nmol) to each animal through tail vein injection.
(§4) At different time points after the administration, the mice treated with each compound were euthanized. The tissues and organs of the animals in each group were collected, excised, weighed, and analyzed in a PerkinElmer 2480 WIZARD2γ counter, and the percent injected dose (% ID) and % ID/g of each organ or tissue were calculated.

[3] = system: ASPC-1 tumor-bearing mice; assay: Biodistribution of radionuclide labeled complexes in ASPC-1 tumor-bearing mice; format: in vivo, BALB/c nude mice
Procedure: as §1, §2, §3, §4

Structure (SMILES): COc1cccc(OC)c1-c1cc(C(=O)NC2(C(=O)O)C3CC4CC(C3)CC2C4)nn1-c1ccc(NCCCCCN(C)C)cc1C(C)C (stereo not shown) [II-3, 2-(5-(2,6-dimethoxyphenyl)-1-(4-((5-(dimethylamino)pentyl)amino)-2-isopropylphenyl)-1H-pyrazole-3-carboxamido)adamantane-2-carboxylic acid]
- Relative Binding Affinity [1]: 535.2

Structure (SMILES): COc1cccc(OC)c1-c1cc(C(=O)NC2(C(=O)O)C3CC4CC(C3)CC2C4)nn1-c1ccc(NCCCCN(C)C)cc1C(C)C (stereo not shown) [II-2, 2-(5-(2,6-dimethoxyphenyl)-1-(4-((4-(dimethylamino)butyl)amino)-2-isopropylphenyl)-1H-pyrazole-3-carboxamido)adamantane-2-carboxylic acid]
- Relative Binding Affinity [1]: 293.0
- IC50 ([1]; Nonlin fit, single assay, HT-29 cells, read-out: LogIC50 Mean (converted)): 0.158 nM
- binding affinity compared to comparator compound C-1 or C-3 ([1]; single radioligand competitive binding assay): higher binding affinity

More lines, now with the values ahead:

- Relative Binding Affinity [1]: 538.2
Structure (SMILES): COc1cccc(OC)c1-c1cc(C(=O)NC2(C(=O)O)C3CC4CC(C3)CC2C4)nn1-c1ccc(N(C)CCCN(C)CCCN(C)C(=O)COCCOCCNC(=O)CN2CCN(CC(=O)O)CCN(CC(=O)O)CCN(CC(=O)O)CC2)cc1C(C)C (stereo not shown) [Compound I-4, 2,2′,2″-(10-(2-(4-(3-((2-carboxyadamantan-2-yl)carbamoyl)-5-(2,6-dimethoxyphenyl)-1H-pyrazol-1-yl)-3-isopropylphenyl)-6,10-dimethyl-11,20-dioxo-13,16-dioxa-2,6,10,19-tetraazahenicosan-21-yl)-1,4,7,10-tetraazacyclododecane-1,4,7-triyl)triacetic acid]

- % ID/g (1 h) Blood ([2]; Blood, 1 h): 3.2 ± 1.07 % ID/g
- % ID/g (4 h) Blood ([2]; Blood, 4 h): 0.08 ± 0.03 % ID/g
- % ID/g (1 h) Femur ([2]; Femur, 1 h): 0.68 ± 0.18 % ID/g
- % ID/g (4 h) Femur ([2]; Femur, 4 h): 0.2 ± 0.03 % ID/g
- % ID/g (1 h) Heart ([2]; Heart, 1 h): 1.17 ± 0.24 % ID/g
- % ID/g (4 h) Heart ([2]; Heart, 4 h): 0.12 ± 0.03 % ID/g
- % ID/g (1 h) Intestine ([2]; Intestine, 1 h): 1.21 ± 0.06 % ID/g
- % ID/g (4 h) Intestine ([2]; Intestine, 4 h): 0.27 ± 0.07 % ID/g
- % ID/g (1 h) Kidney ([2]; Kidney, 1 h): 5.9 ± 4.85 % ID/g
- % ID/g (4 h) Kidney ([2]; Kidney, 4 h): 5.14 ± 2.21 % ID/g
- % ID/g (1 h) Liver ([2]; Liver, 1 h): 1.28 ± 0.47 % ID/g
- % ID/g (4 h) Liver ([2]; Liver, 4 h): 0.83 ± 0.27 % ID/g
- % ID/g (1 h) Lung ([2]; Lung, 1 h): 1.66 ± 1.17 % ID/g
- % ID/g (4 h) Lung ([2]; Lung, 4 h): 0.27 ± 0.04 % ID/g
- % ID/g (1 h) Muscle ([2]; Muscle, 1 h): 0.57 ± 0.15 % ID/g
- % ID/g (4 h) Muscle ([2]; Muscle, 4 h): 0.09 ± 0.04 % ID/g
- % ID/g (1 h) Pancreas ([2]; Pancreas, 1 h): 0.62 ± 0.25 % ID/g
- % ID/g (4 h) Pancreas ([2]; Pancreas, 4 h): 0.14 ± 0.02 % ID/g
- % ID/g (1 h) Spleen ([2]; Spleen, 1 h): 0.45 ± 0.19 % ID/g
- % ID/g (4 h) Spleen ([2]; Spleen, 4 h): 0.26 ± 0.1 % ID/g
- % ID/g (1 h) Stomach ([2]; Stomach, 1 h): 0.69 ± 0.23 % ID/g
- % ID/g (4 h) Stomach ([2]; Stomach, 4 h): 0.32 ± 0.2 % ID/g
- % ID/g (1 h) Tumor ([2]; Tumor, 1 h): 10.31 ± 4.72 % ID/g
- % ID/g (4 h) Tumor ([2]; Tumor, 4 h): 7.53 ± 3.52 % ID/g
- tumor uptake relative to blood, liver and lung compared to ^177Lu—C5 ([3]; 1 or 4 hours): significantly higher tumor uptake
- uptake ratio Tumor/Blood ([3]; 1 h): 33.3
- uptake ratio Tumor/Kidney ([3]; 1 h): 3.42
- uptake ratio Tumor/Liver ([3]; 1 h): 25.0
- uptake ratio Tumor/Lung ([3]; 1 h): 23.7
- uptake ratio Tumor/Blood ([3]; 4 h): 364
- uptake ratio Tumor/Kidney ([3]; 4 h): 5.70
- uptake ratio Tumor/Liver ([3]; 4 h): 25.9
- uptake ratio Tumor/Lung ([3]; 4 h): 79.3
- % ID/g (1 h) Blood ([3]; 1 h): 0.38 ± 0.06 % ID/g
- % ID/g (4 h) Blood ([3]; 4 h): 0.04 ± 0.01 % ID/g
- % ID/g (1 h) Femur ([3]; 1 h): 0.12 ± 0.01 % ID/g
- % ID/g (4 h) Femur ([3]; 4 h): 0.12 ± 0.09 % ID/g
- % ID/g (1 h) Heart ([3]; 1 h): 0.22 ± 0.12 % ID/g
- % ID/g (4 h) Heart ([3]; 4 h): 0.12 ± 0.03 % ID/g
- % ID/g (1 h) Intestine ([3]; 1 h): 0.77 ± 0.31 % ID/g
- % ID/g (4 h) Intestine ([3]; 4 h): 0.22 ± 0.06 % ID/g
- % ID/g (1 h) Kidney ([3]; 1 h): 3.71 ± 0.24 % ID/g
- % ID/g (4 h) Kidney ([3]; 4 h): 2.39 ± 0.37 % ID/g
- % ID/g (1 h) Liver ([3]; 1 h): 0.51 ± 0.22 % ID/g
- % ID/g (4 h) Liver ([3]; 4 h): 0.53 ± 0.16 % ID/g
- % ID/g (1 h) Lung ([3]; 1 h): 0.54 ± 0.04 % ID/g
- % ID/g (4 h) Lung ([3]; 4 h): 0.17 ± 0.08 % ID/g
- % ID/g (1 h) Muscle ([3]; 1 h): 0.06 ± 0 % ID/g
- % ID/g (4 h) Muscle ([3]; 4 h): 0.08 ± 0.02 % ID/g
- % ID/g (1 h) Pancreas ([3]; 1 h): 0.11 ± 0.03 % ID/g
- % ID/g (4 h) Pancreas ([3]; 4 h): 0.06 ± 0.02 % ID/g
- % ID/g (1 h) Spleen ([3]; 1 h): 0.09 ± 0.01 % ID/g
- % ID/g (4 h) Spleen ([3]; 4 h): 0.13 ± 0.03 % ID/g
- % ID/g (1 h) Stomach ([3]; 1 h): 0.27 ± 0.19 % ID/g
- % ID/g (4 h) Stomach ([3]; 4 h): 0.21 ± 0.05 % ID/g
- % ID/g (1 h) Tumor ([3]; 1 h): 12.71 ± 4.57 % ID/g
- % ID/g (4 h) Tumor ([3]; 4 h): 13.64 ± 2.5 % ID/g
Structure (SMILES): COc1cccc(OC)c1-c1cc(C(=O)NC2(C(=O)O)C3CC4CC(C3)CC2C4)nn1-c1ccc(N(CCCN(C)C)C(=O)COCCOCCNC(=O)CN2CCN(CC(=O)[O-])CCN(CC(=O)[O-])CCN(CC(=O)[O-])CC2)cc1C(C)C.[177Lu+3] (stereo not shown) [^177Lu-I-6]

- uptake ratio Tumor/Blood ([3]; 1 h): 4.7
- uptake ratio Tumor/Kidney ([3]; 1 h): 17.2
- uptake ratio Tumor/Liver ([3]; 1 h): 17.9
- uptake ratio Tumor/Lung ([3]; 1 h): 9.0
- uptake ratio Tumor/Blood ([3]; 4 h): 60.5
- uptake ratio Tumor/Kidney ([3]; 4 h): 40.0
- uptake ratio Tumor/Liver ([3]; 4 h): 16.6
- uptake ratio Tumor/Lung ([3]; 4 h): 43.3
- % ID/g (1 h) Blood ([3]; 1 h): 3.18 ± 0.24 % ID/g
- % ID/g (4 h) Blood ([3]; 4 h): 0.22 ± 0.07 % ID/g
- % ID/g (1 h) Femur ([3]; 1 h): 0.53 ± 0.04 % ID/g
- % ID/g (4 h) Femur ([3]; 4 h): 0.13 ± 0.1 % ID/g
- % ID/g (1 h) Heart ([3]; 1 h): 1.46 ± 0.24 % ID/g
- % ID/g (4 h) Heart ([3]; 4 h): 0.16 ± 0.06 % ID/g
- % ID/g (1 h) Intestine ([3]; 1 h): 1.28 ± 0.11 % ID/g
- % ID/g (4 h) Intestine ([3]; 4 h): 0.42 ± 0.16 % ID/g
- % ID/g (1 h) Kidney ([3]; 1 h): 0.87 ± 0.05 % ID/g
- % ID/g (4 h) Kidney ([3]; 4 h): 0.33 ± 0.09 % ID/g
- % ID/g (1 h) Liver ([3]; 1 h): 0.84 ± 0.43 % ID/g
- % ID/g (4 h) Liver ([3]; 4 h): 0.79 ± 0.08 % ID/g
- % ID/g (1 h) Lung ([3]; 1 h): 1.66 ± 0.93 % ID/g
- % ID/g (4 h) Lung ([3]; 4 h): 0.3 ± 0.15 % ID/g
- % ID/g (1 h) Muscle ([3]; 1 h): 0.31 ± 0.05 % ID/g
- % ID/g (4 h) Muscle ([3]; 4 h): 0.06 ± 0.02 % ID/g
- % ID/g (1 h) Pancreas ([3]; 1 h): 0.26 ± 0.05 % ID/g
- % ID/g (4 h) Pancreas ([3]; 4 h): 0.06 ± 0.02 % ID/g
- % ID/g (1 h) Spleen ([3]; 1 h): 0.26 ± 0.05 % ID/g
- % ID/g (4 h) Spleen ([3]; 4 h): 0.08 ± 0.03 % ID/g
- % ID/g (1 h) Stomach ([3]; 1 h): 0.55 ± 0.13 % ID/g
- % ID/g (4 h) Stomach ([3]; 4 h): 0.4 ± 0.22 % ID/g
- % ID/g (1 h) Tumor ([3]; 1 h): 14.96 ± 6.57 % ID/g
- % ID/g (4 h) Tumor ([3]; 4 h): 13.06 ± 6.54 % ID/g
Structure (SMILES): COc1cccc(OC)c1-c1cc(C(=O)NC2(C(=O)O)C3CC4CC(C3)CC2C4)nn1-c1ccc(C(=O)N(CCCNC(=O)CN2CCN(CC(=O)[O-])CCN(CC(=O)[O-])CCN(CC(=O)[O-])CC2)CCCN(C)C)cc1C(C)C.[177Lu+3] (stereo not shown) [^177Lu-C-5, reference compound]
